pEC50, pIC50, pKi: −log10 of the molar value. Blank lines part the entries; values can stand above or below the molecule they belong to.
Legend:
[1] = Compound was tested for the max. conc. when administered perorally(po) 30 mg/kg; type: ADME, organism-based; set-up: dose 30 mg/kg, route oral; conditions: in vivo
[2] = Compound was tested for the max. conc. when administered intraperitoneally (ip) 30 mg/kg; type: ADME, organism-based; set-up: dose 30 mg/kg, route intraperitoneal; conditions: in vivo
[3] = Compound was tested for bioavailability when administered perorally; type: ADME, organism-based; conditions: eutheria, in vivo, po
[4] = Compound was tested for bioavailability when administered intraperitoneally; type: ADME, organism-based; conditions: eutheria, in vivo, ip
[5] = target: T1, Corticotropin-releasing factor receptor 1 (Homo sapiens, UniProt P34998); assay: Effective concentration to stimulate the human corticotropin releasing factor receptor using agonist-stimulated adenylate cyclase assay; type: functional
T1 sequence (P34998 whole entry): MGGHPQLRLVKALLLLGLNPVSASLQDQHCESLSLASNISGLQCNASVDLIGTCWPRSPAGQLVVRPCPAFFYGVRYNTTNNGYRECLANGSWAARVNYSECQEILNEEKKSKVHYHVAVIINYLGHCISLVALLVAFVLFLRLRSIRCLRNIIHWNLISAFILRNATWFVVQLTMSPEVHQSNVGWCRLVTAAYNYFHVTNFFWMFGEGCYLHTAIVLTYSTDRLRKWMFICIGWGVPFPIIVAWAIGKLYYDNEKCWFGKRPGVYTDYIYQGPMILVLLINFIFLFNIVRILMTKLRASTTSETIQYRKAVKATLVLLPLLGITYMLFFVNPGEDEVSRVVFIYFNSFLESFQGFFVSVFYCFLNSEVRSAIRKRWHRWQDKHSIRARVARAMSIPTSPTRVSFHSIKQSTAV

[6] = Pharmacokinetic profile (5 mg/kg) in rat for Oral bioavailability; type: ADME, organism-based; conditions: in vivo
Rattus norvegicus [7] = species: Rattus norvegicus; assay: Effective concentration to inhibit adenocorticotropic hormone (ACTH) release from primary cultures of rat pituitary cells.; type: functional, cell-based; conditions: Pituitary gland cell
[8] = target: T2, Corticotropin releasing factor receptor (Rattus norvegicus, UniProt P47866+P35353); assay: (§1) Compound was tested for the binding affinity to rat corticotropin releasing factor receptor; type: protein assay
[9] = target: T2, Corticotropin releasing factor receptor; assay: Effective concentration to inhibit CRF-mediated increase in adenylate cyclase; type: protein assay
[10] = target: T2, Corticotropin releasing factor receptor; assay: as §1; type: protein assay; remark: listed apart in the source
[11] = target: T1, Corticotropin-releasing factor receptor 1; assay: Compound was tested for the binding affinity to human corticotropin releasing factor 1 (hCRF1) receptors.
[12] = target: T1, Corticotropin-releasing factor receptor 1; assay: Inhibition of corticotropin releasing factor receptor mediated increase in adenylate cyclase activity was evaluated
[13] = oral pharmacokinetic parameter, Half-life period was reported in dogs; type: ADME, organism-based, Canis lupus familiaris; conditions: dog, in vivo
[14] = (§2) oral pharmacokinetic parameter, Half-life period was reported in rats; type: ADME, organism-based; conditions: rat, in vivo
[15] = as §2; type: ADME, organism-based; conditions: rat, in vivo; remark: listed apart in the source
[16] = oral pharmacokinetic parameter, Oral bioavailability was reported in rats; type: ADME, organism-based; conditions: rat, in vivo
[17] = oral pharmacokinetic parameter, Maximum concentration was reported in dogs; type: ADME, organism-based, Canis lupus familiaris; set-up: route oral; conditions: dog, in vivo
[18] = oral pharmacokinetic parameter, Oral bioavailability was reported in dogs; type: ADME, organism-based, Canis lupus familiaris; conditions: dog, in vivo
[19] = target: T1, Corticotropin-releasing factor receptor 1; assay: Compound was tested for the binding affinity to human corticotropin releasing factor receptor
[20] = target: T2, Corticotropin releasing factor receptor; assay: Compound was tested for the binding affinity to rat Corticotropin releasing factor (rCRF) receptors; type: protein assay
[21] = target: T2, Corticotropin releasing factor receptor; assay: Compound was tested for the inhibition of binding of the radioligand, [125 I-Tyr0]-CRF to rat cerebral cortex membrane; type: tissue-based
Rattus norvegicus [22] = species: Rattus norvegicus; assay: 50% inhibitory concentration to antagonize Corticotropin releasing factor (CRF) stimulated adenylate cyclase; type: functional
[23] = target: T2, Corticotropin releasing factor receptor; assay: Inhibition of binding of the radioligand, [125 I-Tyr0]-CRF to rat cerebral cortex membrane; type: tissue-based
Rattus norvegicus [24] = species: Rattus norvegicus; assay: Oral activity was evaluated in an rat situational anxiety test; type: functional
Rattus norvegicus [25] = assay: Minimum effective dose in rat […] anxiety test when administered perorally; type: functional; conditions: po, read-out: MED
HEK293 = assay: Inhibition of h- CRF mediated increase in adenylate cyclase activity was evaluated in HEK293 cells; type: functional, cell-based; conditions: Homo sapiens
Rattus norvegicus [26] = assay: Percent reduction in latency time in the dark compartment at 20 mg/kg was reported; type: functional
[27] = target: T1, Corticotropin-releasing factor receptor 1; assay: Compound was tested for the binding affinity to human corticotropin releasing factor 1 (hCRF1) receptors

Compound: CC[C@H](C)[C@H](NC(=O)[C@@H](NC(=O)[C@H](CC(=O)O)NC(=O)[C@H](CC(C)C)NC(=O)[C@H](CC(C)C)NC(=O)[C@H](CC(C)C)NC(=O)[C@H](CCCNC(=N)N)NC(=O)[C@H](CC(N)=O)NC(=O)[C@H](CC(N)=O)NC(=O)[C@H](C)NC(=O)[C@H](C)NC(=O)[C@H](CCC(N)=O)NC(=O)[C@H](CCC(N)=O)NC(=O)[C@H](CCCCN)NC(=O)[C@H](CCC(=O)O)NC(=O)[C@H](CCCCN)NC(=O)[C@H](CCC(=O)O)NC(=O)[C@H](CCC(N)=O)NC(=O)[C@H](CCCCN)NC(=O)[C@H](CCC(=O)O)NC(=O)[C@@H](NC(=O)[C@H](CCC(=O)O)NC(=O)[C@@H](NC(=O)[C@H](CCSC)NC(=O)[C@H](CCCCN)NC(=O)[C@H](CCCNC(=N)N)NC(=O)[C@H](CC(C)C)NC(=O)[C@H](CC(C)C)NC(=O)[C@H](Cc1c[nH]cn1)NC(=O)[C@H](N)Cc1ccccc1)[C@@H](C)CC)[C@@H](C)CC)[C@@H](C)O)C(N)=O
pEC50 [5]: 5.42

Compound: CCCN(CC1CC1)c1nc(C)nc(Nc2c(Cl)cc(Cl)cc2Cl)c1Cl
pEC50 (Rattus norvegicus [7]): 7.15
Ki [8]: 2 nM
EC50 [9]: 150 nM
Ki [10]: > 10000 nM

Compound: CCCN(CCOC)c1cc(C)nc2c(-c3ccc(OC)c(OC)c3)c(C)nn12
pKi [11]: 7.86

Compound: COCC(COC)Nc1nc(C)nc2c(-c3ccc(Cl)cc3Cl)c(C)nn12
pIC50 [12]: 7.09
half-life [13]: 33 h
half-life [14]: 16.5 h
half-life [15]: 16.5 h
F [16]: 36.7%
Cmax [17]: 240 nM
bioavailability [18]: 50%
pKi [19]: 8.74

Compound: CCCCC(CC)n1c(C)nc2c(-c3ccc(Cl)cc3Cl)ncnc21 (stereo unspecified)
Ki [8]: 8.8 nM

Compound: Cc1c(SSc2c(C)n(C)n(-c3ccc4ccccc4c3)c2=O)c(=O)n(-c2ccc3ccccc3c2)n1C
pIC50 (Rattus norvegicus [22]): 6.00
IC50 [23]: 3300 nM

Compound: CCC(CC)Nc1cc(C)nc2c(-c3ccc(OC)cc3C)c(C)nn12
ED50 (Rattus norvegicus [24]): 1 mg/kg
minimal effective dose (Rattus norvegicus [25]): 1 mg/kg
pIC50 (HEK293): 5.00
Reduction (Rattus norvegicus [26]): 57%
pKi [27]: 9.00

Other lines, results leading:

Cmax [1]: 366 nM
Cmax [2]: 1880 nM
bioavailability [3]: 4%
bioavailability [4]: 26%
Compound: CCN(c1nc(C)cc(C)n1)c1c(Br)cc(OC)cc1OC

bioavailability [6]: 20%
Compound: CCN(c1nc(C)nc(N2CCOCC2)n1)c1c(Br)cc(OC)cc1OC.CS(=O)(=O)O

Ki [20]: 28 nM
Compound: Cc1cc(N2CCOCC2)c2ccn(-c3ccc(C(C)C)cc3Br)c2n1

IC50 [21]: 10 nM
Compound: CCN(c1nc(C)cc(N2CCC=C(c3ccccc3C)C2)n1)c1ccc(C(C)C)cc1SC

pIC50 (Rattus norvegicus [22]): 4.70
Compound: Cc1cc(C)nc(N(C)c2ccccc2Br)n1

Ki [8]: 4 nM
Compound: CCc1nc2c(c(C)nn2-c2ccc(C(C)C)cc2Br)n1Cc1ccccc1
